Data as given in PubChem BioAssay (NCI).
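GI50: concentration for 50% inhibition of growth. TGI denotes the concentration required for complete inhibition of growth.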

What was measured:
Test in all cases: NCI-60 cell line screen, 384-well format
786-0 renal = test system: 786-0 renal
A498 renal = test system: A498 renal
A549 NSCLC = test system: A549 NSCLC
ACHN renal = test system: ACHN renal
BT-549 breast = test system: BT-549 breast
CAKI-1 renal = test system: CAKI-1 renal
CCRF-CEM leukemia = test system: CCRF-CEM leukemia
COLO 205 colon = test system: COLO 205 colon
DU-145 prostate = test system: DU-145 prostate
EKVX NSCLC = test system: EKVX NSCLC
HCC-2998 colon = test system: HCC-2998 colon
HCT-15 colon = test system: HCT-15 colon
HL-60(TB) leukemia = test system: HL-60(TB) leukemia
HOP-62 NSCLC = test system: HOP-62 NSCLC
HOP-92 NSCLC = test system: HOP-92 NSCLC
HS 578T breast = test system: HS 578T breast
HT29 colon = test system: HT29 colon
IGROV1 ovarian = test system: IGROV1 ovarian
K-562 leukemia = test system: K-562 leukemia
KM12 colon = test system: KM12 colon
LOX IMVI melanoma = test system: LOX IMVI melanoma
M14 melanoma = test system: M14 melanoma
MALME-3M melanoma = test system: MALME-3M melanoma
MCF7 breast = test system: MCF7 breast
MDA-MB-231 breast = test system: MDA-MB-231 breast
MDA-MB-435 melanoma = test system: MDA-MB-435 melanoma
MDA-MB-468 breast = test system: MDA-MB-468 breast
MOLT-4 leukemia = test system: MOLT-4 leukemia
NCI-H226 lung = test system: NCI-H226 lung
NCI-H23 lung = test system: NCI-H23 lung
NCI-H322M lung = test system: NCI-H322M lung
NCI-H460 NSCLC = test system: NCI-H460 NSCLC
NCI-H522 lung = test system: NCI-H522 lung
NCI/ADR-RES ovarian = test system: NCI/ADR-RES ovarian
OVCAR-3 ovarian = test system: OVCAR-3 ovarian
OVCAR-4 ovarian = test system: OVCAR-4 ovarian
OVCAR-5 ovarian = test system: OVCAR-5 ovarian
OVCAR-8 ovarian = test system: OVCAR-8 ovarian
PC-3 prostate = test system: PC-3 prostate
RPMI-8226 leukemia = test system: RPMI-8226 leukemia
RXF 393 renal = test system: RXF 393 renal
SF-268 CNS = test system: SF-268 CNS
SF-295 CNS = test system: SF-295 CNS
SF-539 CNS = test system: SF-539 CNS
SK-MEL-28 melanoma = test system: SK-MEL-28 melanoma
SK-MEL-5 melanoma = test system: SK-MEL-5 melanoma
SK-OV-3 ovarian = test system: SK-OV-3 ovarian
SN12C renal = test system: SN12C renal
SNB-19 CNS = test system: SNB-19 CNS
SNB-75 CNS = test system: SNB-75 CNS
SR leukemia = test system: SR leukemia
SW-620 colon = test system: SW-620 colon
T-47D breast = test system: T-47D breast
TK-10 renal = test system: TK-10 renal
U251 glioblastoma = test system: U251 glioblastoma
UACC-257 melanoma = test system: UACC-257 melanoma
UACC-62 melanoma = test system: UACC-62 melanoma
UO-31 renal = test system: UO-31 renal

SMILES: Cc1sc2c(c1C)C(c1ccc(Cl)cc1)=N[C@@H](CC(=O)OC(C)(C)C)c1nnc(C)n1-2
- GI50 ([…]-0 renal): 118 nM
- TGI (786-0 renal): 13.8 µM
- GI50 (A498 renal): 197 nM
- TGI (A498 renal): 9.7 µM
- GI50 (A549 NSCLC): 177 nM
- TGI (A549 NSCLC): 13.6 µM
- GI50 (ACHN renal): 560 nM
- TGI (ACHN renal): 16.9 µM
- GI50 (BT-549 breast): 51 nM
- TGI (BT-549 breast): 869 nM
- GI50 (CAKI-1 renal): 53.9 nM
- TGI (CAKI-1 renal): 13 µM
- GI50 (CCRF-CEM leukemia): 230 nM
- TGI (CCRF-CEM leukemia): 1680 nM
- GI50 (COLO 205 colon): 100 nM
- TGI (COLO 205 colon): 11.5 µM
- GI50 (DU-145 prostate): 2220 nM
- TGI (DU-145 prostate): 20.1 µM
- GI50 (EKVX NSCLC): 4.61 µM
- TGI (EKVX NSCLC): 20.5 µM
- GI50 (HCC-2998 colon): 94.6 nM
- TGI (HCC-2998 colon): 394 nM
- GI50 (HCT-15 colon): 48.4 nM
- TGI (HCT-15 colon): 371 nM
- GI50 (HL-60(TB) leukemia): 23.3 nM
- TGI (HL-60(TB) leukemia): 73.2 nM
- GI50 (HOP-62 NSCLC): 71.9 nM
- TGI (HOP-62 NSCLC): 10.9 µM
- GI50 (HOP-92 NSCLC): 74.4 nM
- TGI (HOP-92 NSCLC): 13.6 µM
- GI50 (HS 578T breast): 30.7 nM
- TGI (HS 578T breast): 266 nM
- GI50 (HT29 colon): 82 nM
- TGI (HT29 colon): 12.6 µM
- GI50 (IGROV1 ovarian): 160 nM
- TGI (IGROV1 ovarian): 1190 nM
- GI50 (K-562 leukemia): 139 nM
- TGI (K-562 leukemia): 13.5 µM
- GI50 (KM12 colon): 322 nM
- TGI (KM12 colon): 13.2 µM
- GI50 (LOX IMVI melanoma): 57.3 nM
- TGI (LOX IMVI melanoma): 223 nM
- GI50 (M14 melanoma): 447 nM
- TGI (M14 melanoma): 17.5 µM
- GI50 (MALME-3M melanoma): 96.7 nM
- TGI (MALME-3M melanoma): 2330 nM
- GI50 (MCF7 breast): 38.3 nM
- TGI (MCF7 breast): 10.3 µM
- GI50 (MDA-MB-231 breast): 57.7 nM
- TGI (MDA-MB-231 breast): 13.7 µM
- GI50 (MDA-MB-435 melanoma): 599 nM
- TGI (MDA-MB-435 melanoma): 10.7 µM
- GI50 (MDA-MB-468 breast): 37.3 nM
- TGI (MDA-MB-468 breast): 109 nM
- GI50 (MOLT-4 leukemia): 201 nM
- TGI (MOLT-4 leukemia): 1170 nM
- GI50 (NCI-H226 lung): 106 nM
- TGI (NCI-H226 lung): 12.3 µM
- GI50 (NCI-H23 lung): 148 nM
- TGI (NCI-H23 lung): 3.5 µM
- GI50 (NCI-H322M lung): 241 nM
- TGI (NCI-H322M lung): 14.6 µM
- GI50 (NCI-H460 NSCLC): 1040 nM
- TGI (NCI-H460 NSCLC): 15 µM
- GI50 (NCI-H522 lung): 56 nM
- TGI (NCI-H522 lung): 434 nM
- GI50 (NCI/ADR-RES ovarian): 80.5 nM
- TGI (NCI/ADR-RES ovarian): 839 nM
- GI50 (OVCAR-3 ovarian): 86 nM
- TGI (OVCAR-3 ovarian): 1070 nM
- GI50 (OVCAR-4 ovarian): 42.1 nM
- TGI (OVCAR-4 ovarian): 254 nM
- GI50 (OVCAR-5 ovarian): 183 nM
- TGI (OVCAR-5 ovarian): 14.5 µM
- GI50 (OVCAR-8 ovarian): 91.7 nM
- TGI (OVCAR-8 ovarian): 1750 nM
- GI50 (PC-3 prostate): 744 nM
- TGI (PC-3 prostate): 16.5 µM
- GI50 (RPMI-8226 leukemia): 26.8 nM
- TGI (RPMI-8226 leukemia): 74.7 nM
- GI50 (RXF 393 renal): 1140 nM
- TGI (RXF 393 renal): 17.5 µM
- GI50 (SF-268 CNS): 984 nM
- TGI (SF-268 CNS): 19.3 µM
- GI50 (SF-295 CNS): 815 nM
- TGI (SF-295 CNS): 17.3 µM
- GI50 (SF-539 CNS): 286 nM
- TGI (SF-539 CNS): 12.9 µM
- GI50 (SK-MEL-28 melanoma): 448 nM
- TGI (SK-MEL-28 melanoma): 16.7 µM
- GI50 (SK-MEL-5 melanoma): 96.4 nM
- TGI (SK-MEL-5 melanoma): 1910 nM
- GI50 (SK-OV-3 ovarian): 142 nM
- TGI (SK-OV-3 ovarian): 6.78 µM
- GI50 (SN12C renal): 3.26 µM
- TGI (SN12C renal): 19.9 µM
- GI50 (SNB-19 CNS): 371 nM
- TGI (SNB-19 CNS): 16.2 µM
- GI50 (SNB-75 CNS): 634 nM
- TGI (SNB-75 CNS): 19.1 µM
- GI50 (SR leukemia): 27.3 nM
- TGI (SR leukemia): 252 nM
- GI50 (SW-620 colon): 10.1 µM
- TGI (SW-620 colon): 21.8 µM
- GI50 (T-47D breast): 293 nM
- TGI (T-47D breast): 13.2 µM
- GI50 (TK-10 renal): 91.5 nM
- TGI (TK-10 renal): 8.29 µM
- GI50 (U251 glioblastoma): 1170 nM
- TGI (U251 glioblastoma): 17.9 µM
- GI50 (UACC-257 melanoma): 58.1 nM
- TGI (UACC-257 melanoma): 1940 nM
- GI50 (UACC-62 melanoma): 43 nM
- TGI (UACC-62 melanoma): 10.5 µM
- GI50 (UO-31 renal): 837 nM
- TGI (UO-31 renal): 20.6 µM
